According to patent US12558007B2 (priority 2016, dated 2026):

Molecular target: acetylcholinesterase enzyme (Homo sapiens, UniProt P22303)
Test: Electrochemical sensor with acetylthiocholine reservoir in buffer containing acetylcholinesterase; inhibitor added, then sensor moved to fresh buffer
Format: biochemical
Conditions: 20 mM PBS, pH 7.4, 1 U/mL acetylcholinesterase, FIG. 13
Procedure: In this example, a buffer was created to simulate endogenous cholinesterase activity in the interstitial fluid of a test subject. A sensor similar to that described in Example 6 was created with 100 nL of 1 M acetylthiocholine in the reactant reservoir. The sensor was placed in a buffer solution of 20 mM PBS, pH 7.4, and 1 U/mL of acetylcholinesterase enzyme to simulate a test subject. A reversible acetylcholinesterase inhibitor (Neostigmine Bromide) was then added to the buffer solution to simulate an organophosphate. The sensor was then removed from the buffer solution containing the inhibitor and placed in fresh buffer solution.

Sequence of acetylcholinesterase enzyme (P22303 32-614, species assumed): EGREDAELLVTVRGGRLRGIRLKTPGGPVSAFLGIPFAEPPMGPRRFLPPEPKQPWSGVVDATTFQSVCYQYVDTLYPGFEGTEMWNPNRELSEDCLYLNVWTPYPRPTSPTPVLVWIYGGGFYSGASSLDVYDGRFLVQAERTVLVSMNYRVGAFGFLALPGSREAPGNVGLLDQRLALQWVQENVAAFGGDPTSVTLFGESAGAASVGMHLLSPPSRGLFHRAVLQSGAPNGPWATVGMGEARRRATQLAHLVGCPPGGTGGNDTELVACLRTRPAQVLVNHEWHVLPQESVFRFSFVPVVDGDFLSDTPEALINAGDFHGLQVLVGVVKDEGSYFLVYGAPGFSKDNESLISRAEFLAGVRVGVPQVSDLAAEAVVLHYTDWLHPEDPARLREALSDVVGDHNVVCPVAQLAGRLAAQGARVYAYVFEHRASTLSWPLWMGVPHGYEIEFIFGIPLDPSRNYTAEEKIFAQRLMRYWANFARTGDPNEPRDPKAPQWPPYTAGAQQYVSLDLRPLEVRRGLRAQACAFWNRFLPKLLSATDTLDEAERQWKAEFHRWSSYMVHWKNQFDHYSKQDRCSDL

CN(C)C(=O)Oc1cccc([N+](C)(C)C)c1 [Neostigmine Bromide]
sensor signal created by acetylcholinesterase interacting with acetylthiocholine, after addition of the inhibitor (100 nL of 1 M acetylthiocholine in reservoir): fell off after the addition of the inhibitor | sensor signal after sensor removed from inhibitor solution and placed in fresh buffer (reversibility) (fresh buffer): the signal rebounded
